According to patent US20120171305A1, “Response Prediction in Cancer Treatment Involving p53 Adapted Cancer Therapy” (priority 2011, published 2012):

Test system: stage III colon cancer
Experiment: Studie 90: fluorouracil-based adjuvant chemotherapy, survival by TP53 genotype
Type: in vivo, human
Settings: for five-years survival rate: low risk patients (1-3 positive lymph nodes)
Source text: Tumor specimens were collected from 411 patients enrolled in a randomised trial of fluorouracil-based adjuvant chemotherapy for stage III colon cancer patients.
Fluorouracil acts according to pathway 1 and is supposed to need a normal p53 for induction of apoptosis. The p53 gene status could be assessed in 389 tumors through standardized, gene specific sequencing of the TP53 gene.

O=c1[nH]cc(F)c(=O)[nH]1 [fluorouracil]
five-year survival (entire stage IIIA cohort): 84.5% | interaction between survival and TP53 genotype (high-risk stage III patients): no interaction | five-years survival rate (TP53 mutated): 64.7% | five-years survival rate (normal TP53 genotype): 81% | interaction with TP53 genotype (mutant TP53 genotype, low-risk stage III patients): negatively interacts | interaction with TP53 genotype (normal p53 genotype, low risk stage III patients (N1 or IIIA and IIIB stage)): positively interacts | five-year survival (stage IIIA, TP53 mutant): 78% | five-year survival (stage IIIA, TP53 normal): 91% | five-year survival (stage IIIB cohort): 63% | five-year survival (stage IIIB, TP53 mutant): 60% | five-year survival (stage IIIB, TP53 normal): 79% | benefit in relation to the TP53 genotype (stage IIIC patients): no differential benefit
